This passage reports Kd results from patent US20250296959A1, “B7-H3 TARGETING PEPTIDES AND CONSTRUCTS THEREOF” (Mariana Oncology Inc., priority 2024, published 2025).

SMILES strings stand for the structures. Starred links: 1 amine or outer side, 2 acyl side, 3 side chain; linkers in the order of their positions; H or OH if unused. Positions of bridges follow the written chain, without caps; N, C: chain ends. Non-standard residues stand in square brackets, D forms with d. Residues, ends and D or L forms follow the SMILES beside them. Groups on a side chain read outwards from the residue. *: point of attachment. Ala(piperidin-4-yl) = O=C([C@H](CC1CCN([*:3])CC1)N[*:1])[*:2]; DOTA = O=C(O)CN1CCN(CC(=O)O)CCN(CC(=O)*)CCN(CC(=O)O)CC1; Trp(5-F) = N[C@@H](Cc1c[nH]c2ccc(F)cc12)C(=O)O; X1 = C[C@@H](c1ccccc1)[C@H](N[*:1])C(=O)[*:2]; Phe(4-F) = N[C@@H](Cc1ccc(F)cc1)C(=O)O; Ala(4-THP) = N[C@@H](CC1CCOCC1)C(=O)O; Val(3-OH) = CC(C)(O)[C@H](N)C(=O)O; aThr = C[C@H](O)[C@H](N)C(=O)O; PEG4 = NCCOCCOCCOCCOCCC(=O)O; Tle = CC(C)(C)[C@H](N)C(=O)O; hLeu = CC(C)CC[C@H](N)C(=O)O; NMeS = CN[C@@H](CO)C(=O)O

The target of the experiment is T1, human 4lg B7-H3 (Homo sapiens, UniProt Q5ZPR3).
T1 sequence (Q5ZPR3 29-534): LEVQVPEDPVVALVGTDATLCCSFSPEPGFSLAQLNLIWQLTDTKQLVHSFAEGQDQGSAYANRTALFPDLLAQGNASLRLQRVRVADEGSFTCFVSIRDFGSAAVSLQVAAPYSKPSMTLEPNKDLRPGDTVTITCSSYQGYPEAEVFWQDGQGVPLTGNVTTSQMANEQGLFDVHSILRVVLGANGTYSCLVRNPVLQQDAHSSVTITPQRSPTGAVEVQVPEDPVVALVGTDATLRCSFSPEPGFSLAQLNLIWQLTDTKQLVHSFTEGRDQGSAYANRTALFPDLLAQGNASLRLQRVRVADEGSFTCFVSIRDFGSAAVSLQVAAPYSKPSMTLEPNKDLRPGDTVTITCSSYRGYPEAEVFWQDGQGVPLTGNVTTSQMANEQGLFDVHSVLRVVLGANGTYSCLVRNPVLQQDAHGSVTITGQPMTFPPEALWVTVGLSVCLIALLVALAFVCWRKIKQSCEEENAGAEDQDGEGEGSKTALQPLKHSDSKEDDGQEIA
Kind of experiment: Affinity determination by surface plasmon resonance (SPR) to 4Ig B7-H3. The settings on record: 4Ig B7-H3. In general terms: Surface plasmon resonance follows binding to a sensor surface in real time, without labels.

Setting [1] is: SPR KD—37° C., 37° C. flow cell temperature.
The mark [2] stands for this setting: SPR KD—25° C., 25° C. flow cell temperature.

One may read the Kd as the constant that tells how readily two partners part at equilibrium.

For the compound `CC(=O)N[C@@H](CCC(C)C)C(=O)N[C@@H](Cc1ccc(O)cc1)C(=O)N[C@H]1CSSC[C@@H](C(=O)N[C@@H](Cc2c[nH]c3ccc(F)cc23)C(=O)N[C@H](C(=O)N[C@H](C(=O)NCC(=O)O)C(C)(C)O)[C@@H](C)c2ccccc2)NC(=O)[C@H](Cc2ccc(O)cc2)NC(=O)[C@H](C(C)C)NC(=O)[C@H](CC(=O)O)NC(=O)[C@H](CC2CCN(C(=O)CCOCCOCCOCCOCCNC(=O)CN3CCN(CC(=O)O)CCN(CC(=O)O)CCN(CC(=O)O)CC3)CC2)NC(=O)[C@H](CC2CCNCC2)NC(=O)CNC(=O)[C@H](C(C)(C)C)NC1=O` [compound 510, Ac-hLeu-Y-C-Tbg-G-PipAla-Pip(PEG4-DOTA)Ala-D-V-Y-C-5FW-[(2S, 3S)beta-Me-Phe]-hydroxyVal-Gly-COOH] (Ac-[hLeu]YC[Tle]G[Ala(piperidin-4-yl)][Ala(piperidin-4-yl)]([PEG4-DOTA])DVYC[Trp(5-F)][X1][Val(3-OH)]G-OH; disulfide 3-11), the dissociation constant (Kd) under setting [1] was below 1 nM.
With `CC(=O)N[C@@H](CCC(C)C)C(=O)N[C@@H](Cc1ccc(O)cc1)C(=O)N[C@H]1CSSC[C@@H](C(=O)N[C@@H](Cc2c[nH]c3ccc(F)cc23)C(=O)N[C@@H](Cc2ccccc2)C(=O)N[C@H](C(=O)N[C@H](CCCCN)C(N)=O)C(C)(C)O)NC(=O)[C@H](Cc2ccc(O)cc2)NC(=O)[C@H](C(C)C)NC(=O)[C@H](CC(=O)O)NC(=O)[C@H](CC2CCOCC2)NC(=O)[C@H](CCCCNC(=O)CN2CCN(CC(=O)O)CCN(CC(=O)O)CCN(CC(=O)O)CC2)NC(=O)CNC(=O)[C@H](C(C)(C)C)NC1=O` [compound 337, Ac-hLeu-Y-C-Tbg-G-Lys(DOTA)-ThpA-D-V-Y-C-5FW-F-hydroxyVal-dLys-CONH2] (Ac-[hLeu]YC[Tle]GK(DOTA)[Ala(4-THP)]DVYC[Trp(5-F)]F[Val(3-OH)][dK]-NH2; disulfide 3-11), the Kd under setting [1] fell in the range of 1 to 10 nM.
For the compound `CC(=O)N[C@@H](CCC(C)C)C(=O)N[C@@H](Cc1ccc(F)cc1)C(=O)N[C@H]1CSSC[C@@H](C(=O)N[C@@H](Cc2c[nH]c3ccc(F)cc23)C(=O)N[C@@H](Cc2ccccc2)C(=O)N[C@H](C(=O)N[C@H](CCCCNC(=O)CN2CCN(CC(=O)O)CCN(CC(=O)O)CCN(CC(=O)O)CC2)C(N)=O)[C@@H](C)O)NC(=O)[C@H](Cc2ccc(O)cc2)NC(=O)[C@H](C(C)C)NC(=O)[C@H](CC(=O)O)NC(=O)[C@H](Cc2ccc(O)cc2)NC(=O)[C@H](CCCCN)NC(=O)CNC(=O)[C@H](C(C)C)NC1=O` [compound 192, Ac-hLeu-4FPhe-C-V-G-K-Y-D-V-Y-C-5FW-F-Thr-dLys(DOTA)-CONH2] (Ac-[hLeu][Phe(4-F)]CVGKYDVYC[Trp(5-F)]FT[dK](DOTA)-NH2; disulfide 3-11), the Kd under setting [2] is 1 to 10 nM.
Still for that read-out and setting: next, `CC(=O)N[C@@H](CCC(C)C)C(=O)N[C@@H](Cc1ccc(O)cc1)C(=O)N[C@H]1CSSC[C@@H](C(=O)N[C@@H](Cc2c[nH]c3ccc(F)cc23)C(=O)N[C@@H](Cc2ccccc2)C(=O)N(C)[C@@H](CO)C(=O)N[C@H](CCCCNC(=O)CN2CCN(CC(=O)O)CCN(CC(=O)O)CCN(CC(=O)O)CC2)C(N)=O)NC(=O)[C@H](Cc2ccc(O)cc2)NC(=O)[C@H](C(C)C)NC(=O)[C@H](CC(=O)O)NC(=O)[C@H](Cc2ccc(O)cc2)NC(=O)[C@H](CCCCN)NC(=O)CNC(=O)[C@H](C(C)C)NC1=O` [compound 148, Ac-hLeu-Y-C-V-G-K-Y-D-V-Y-C-5FW-F-NMeSer-dLys(DOTA)-CONH2] (Ac-[hLeu]YCVGKYDVYC[Trp(5-F)]F[NMeS][dK](DOTA)-NH2; disulfide 3-11): below 1 nM; `CC(=O)N[C@@H](CCC(C)C)C(=O)N[C@@H](Cc1ccc(O)cc1)C(=O)N[C@H]1CSSC[C@@H](C(=O)N[C@@H](Cc2c[nH]c3ccc(F)cc23)C(=O)N[C@@H](Cc2ccccc2)C(=O)N[C@H](C(=O)N[C@H](CCCCNC(=O)CN2CCN(CC(=O)O)CCN(CC(=O)O)CCN(CC(=O)O)CC2)C(N)=O)[C@@H](C)O)NC(=O)[C@H](Cc2ccc(O)cc2)NC(=O)[C@H](C(C)C)NC(=O)[C@H](CC(=O)O)NC(=O)[C@H]([C@H](C)O)NC(=O)[C@H](CCCCN)NC(=O)CNC(=O)[C@H](C(C)C)NC1=O` [compound 178, Ac-hLeu-Y-C-V-G-K-alloThr-D-V-Y-C-5FW-F-Thr-dLys(DOTA)-CONH2] (Ac-[hLeu]YCVGK[aThr]DVYC[Trp(5-F)]FT[dK](DOTA)-NH2; disulfide 3-11): 1 to 10 nM.
